# In patent US11072588B2, “Barbituric acid derivatives comprising cationic and lipophilic groups” (UNIVERSITETET I TROMSØ—NORGES ARKTISKE UNIVERSITET, priority 2017, dated 2021):
# Like-named read-outs stand apart in the source and are kept apart here.
# Tests used:
# [1] = Determination of haemolytic activity; format: cell-based; conditions: human red blood cells (washed, from heparinized fresh blood); human RBCs, 1 h, 37° C.; read-out: RBC: haemolytic activity against human RBCs (EC50)
# Procedure: Hemolysis was determined using a heparinized fraction (1000 IU/mL) of freshly drawn blood. Blood collected in EDTA containing test tubes (Vacutest®, KIMA, Arzergrande, Italy) was used for determination of the hematocrit (hct). The heparinized blood was washed 3× with pre-warmed PBS and adjusted to a final hct of 4%. Derivatives in DMSO (50 mM) were added to a 96-well polypropylene V-bottom plate (NUNC, Fisher Scientific, Oslo, Norway) and serially diluted. The test concentration range was 500-4 μM with DMSO contents ≤1%. A solution of 1% triton X-100 was used as positive control for 100% hemolysis. As negative control a solution of 1% DMSO in PBS buffer was included. No signs of DMSO toxicity were detected. RBCs (1% v/v final concentration) were added to the well plate and incubated at 37° C. and 800 rpm for 1 h. After centrifugation (5 min, 3000 g), 100 μL of each well were transferred to a 96-well flat bottom plate and absorbance was measured at 545 nm with a microplate reader (VersaMax™, Molecular Devices, Sunnyvale, Calif., USA). The percentage of hemolysis was calculated as the ratio of the absorbance in the derivative-treated and surfactant treated samples, corrected for the PBS background. Three independent experiments were performed and EC50 values are presented as averages.
# S. aureus IHT 99040 = assay: MIC, multi-resistant clinical isolate; format: cell-based, Staphylococcus aureus; conditions: for selectivity index (EC50/MIC): RBC EC50 / MIC; for MIC: Staphylococcus aureus, IHT99040, read-out: Antimicrobial activity (MIC)
# Procedure: (§1) Working solutions of the test derivatives were prepared with up to 100% DMSO and stored at −20° C. If necessary, the solutions were heated to 40-80° C. before testing to facilitate complete dissolution. Double-distilled water was used in all dilutions prepared. […] A microdilution susceptibility test was used for MIC determination according to Clinical and Laboratory Standards Institute, “Methods for Dilution Antimicrobial Sisceptibility Tests for Bacteria That Graw Aerobically”, Approved Standard M07-A9, edition 2012, with modifications as described by Igumnova et al (Bioorg Med Chem, 2016, 24 (22), 5884-5894).
# (§2) Briefly, the bacterial inoculum was adjusted to approximately 2.5-3×10^4 cells/mL in Mueller-Hinton broth (MHB, Difco Laboratories, USA), and incubated in a ratio of 1:1 with test derivatives in polystyrene 96-well flat-bottom microplates (NUNC, Roskilde, Denmark). Positive growth control (without test derivatives) and negative control (without bacteria) were included. The reference antibiotic was oxytetracycline hydrochloride (Sigma Aldrich, Saint Louis, Mo., USA). The microplates were incubated in an EnVision microplate reader (Perkin-Elmer, Turku, Finland) placed in an incubator set to 35° C. for 48 h. The MIC value was defined as the lowest concentration of derivative resulting in no bacterial growth as determined by OD600 measurement. All derivatives were tested in three parallels.
# (§3) The MIC was determined as explained above with some exceptions; working solutions of test derivatives were prepared from concentrated DMSO stocks stored at room temperature, the density of the bacterial inoculum was increased 40× to 1-1.2×10^6 cells/mL, enterococci were incubated in Brain Heart Infusion broth (BHIB, Difco Laboratories, USA), the microplates were incubated for 24 h, and the derivatives were tested in four parallels.
# E. coli 50579417 = assay: MIC, multi-resistant clinical isolate; format: cell-based, Escherichia coli; conditions: for MIC: Escherichia coli, read-out: Antimicrobial activity (MIC); for selectivity index (EC50/MIC): RBC EC50 / MIC
# Procedure: as §1, §2, §3
# E. coli 50639799 = assay: MIC, multi-resistant clinical isolate; format: cell-based, Escherichia coli; conditions: for MIC: Escherichia coli, read-out: Antimicrobial activity (MIC); for selectivity index (EC50/MIC): RBC EC50 / MIC
# Procedure: as §1, §2, §3
# E. coli 50676002 = assay: MIC, multi-resistant clinical isolate; format: cell-based, Escherichia coli; conditions: for selectivity index (EC50/MIC): RBC EC50 / MIC
# Procedure: as §1, §2, §3
# E. coli 50739822 = assay: MIC, multi-resistant clinical isolate; format: cell-based, Escherichia coli; conditions: for MIC: Escherichia coli, read-out: Antimicrobial activity (MIC); for selectivity index (EC50/MIC): RBC EC50 / MIC
# Procedure: as §1, §2, §3
# E. coli 50857972 = assay: MIC, multi-resistant clinical isolate; format: cell-based, Escherichia coli; conditions: for MIC: Escherichia coli, read-out: Antimicrobial activity (MIC); for selectivity index (EC50/MIC): RBC EC50 / MIC
# Procedure: as §1, §2, §3
# P. aeruginosa 50692172 = assay: MIC, multi-resistant clinical isolate; format: cell-based, Pseudomonas aeruginosa; conditions: for MIC: Pseudomonas aeruginosa, read-out: Antimicrobial activity (MIC); for selectivity index (EC50/MIC): RBC EC50 / MIC
# Procedure: as §1, §2, §3
# P. aeruginosa 50692520 = assay: MIC, multi-resistant clinical isolate; format: cell-based, Pseudomonas aeruginosa; conditions: for MIC: Pseudomonas aeruginosa, read-out: Antimicrobial activity (MIC); for selectivity index (EC50/MIC): RBC EC50 / MIC
# Procedure: as §1, §2, §3
# P. aeruginosa K34-73 = assay: MIC, multi-resistant clinical isolate; format: cell-based, Pseudomonas aeruginosa; conditions: for MIC: Pseudomonas aeruginosa; for selectivity index (EC50/MIC): RBC EC50 / MIC
# Procedure: as §1, §2, §3
# P. aeruginosa K34-7 = assay: MIC, multi-resistant clinical isolate; format: cell-based, Pseudomonas aeruginosa; conditions: for MIC: Pseudomonas aeruginosa, K347, read-out: Antimicrobial activity (MIC); for selectivity index (EC50/MIC): RBC EC50 / MIC, P. aeruginosa K34-7
# Procedure: as §1, §2, §3
# P. aeruginosa K44-24 = assay: MIC, multi-resistant clinical isolate; format: cell-based, Pseudomonas aeruginosa; conditions: for MIC: Pseudomonas aeruginosa, K4424, read-out: Antimicrobial activity (MIC); for selectivity index (EC50/MIC): RBC EC50 / MIC
# Procedure: as §1, §2, §3
# A. baumanii K12-21 = assay: MIC, multi-resistant clinical isolate; format: cell-based, Acinetobacter baumannii; conditions: for MIC: Acinetobacter baumannii, K1221, read-out: Antimicrobial activity (MIC); for selectivity index (EC50/MIC): RBC EC50 / MIC
# Procedure: as §1, §2, §3
# A. baumanii K44-35 = assay: MIC, multi-resistant clinical isolate; format: cell-based, Acinetobacter baumannii; conditions: for MIC: Acinetobacter baumannii, K4435, read-out: Antimicrobial activity (MIC); for selectivity index (EC50/MIC): RBC EC50 / MIC
# Procedure: as §1, §2, §3
# A. baumanii K47-42 = assay: MIC, multi-resistant clinical isolate; format: cell-based, Acinetobacter baumannii; conditions: for MIC: Acinetobacter baumannii, K4742, read-out: Antimicrobial activity (MIC); for selectivity index (EC50/MIC): RBC EC50 / MIC
# Procedure: as §1, §2, §3
# A. baumanii K55-13 = assay: MIC, multi-resistant clinical isolate; format: cell-based, Acinetobacter baumannii; conditions: for MIC: Acinetobacter baumannii, K5513, read-out: Antimicrobial activity (MIC); for selectivity index (EC50/MIC): RBC EC50 / MIC
# Procedure: as §1, §2, §3
# A. baumanii K63-58 = assay: MIC, multi-resistant clinical isolate; format: cell-based, Acinetobacter baumannii; conditions: A. baumanii K63-58, resistant to colistin; for MIC: Acinetobacter baumannii, K6358, 24 h, read-out: Antimicrobial activity (MIC); for selectivity index (EC50/MIC): RBC EC50 / MIC
# Procedure: as §1, §2, §3
# [2] = Escherichia coli, 50676002, read-out: Antimicrobial activity (MIC)
# [3] = K3473, read-out: Antimicrobial activity (MIC)
SMILES,EC50 at 1 h [1],selectivity index (EC50/MIC) (S. aureus IHT 99040),MIC (S. aureus IHT 99040),MIC (E. coli 50579417),selectivity index (EC50/MIC) (E. coli 50579417),MIC (E. coli 50639799),selectivity index (EC50/MIC) (E. coli 50639799),selectivity index (EC50/MIC) (E. coli 50676002; E. coli 50676002),MIC (E. coli 50739822),selectivity index (EC50/MIC) (E. coli 50739822),MIC (E. coli 50857972),selectivity index (EC50/MIC) (E. coli 50857972),MIC (P. aeruginosa 50692172),selectivity index (EC50/MIC) (P. aeruginosa 50692172),MIC (P. aeruginosa 50692520),selectivity index (EC50/MIC) (P. aeruginosa 50692520),selectivity index (EC50/MIC) (P. aeruginosa K34-73; P. aeruginosa K34-73),MIC (P. aeruginosa K34-7),selectivity index (EC50/MIC) (P. aeruginosa K34-7),MIC (P. aeruginosa K44-24),also measured
"NCCCCN1C(=O)N(CCCCN)C(=O)C(Cc2ccc(F)c3ccccc23)(Cc2ccc(F)c3ccccc23)C1=O [7(v), 1,3-bis(4-aminobutyl)-5,5-bis((4-fluoronaphtalen-1-yl)methyl)pyrimidin-2,4,6(1H,3H,5H)-trione]",160 µg/mL,(20),8 µg/mL,16 µg/mL,(10),16 µg/mL,(10),(10),16 µg/mL,(10),16 µg/mL,(10),16 µg/mL,(10),16 µg/mL,(10),(5),32 µg/mL,(5),32 µg/mL,MIC (E. coli 50676002; [2]): 16 µg/mL; MIC (P. aeruginosa K34-73; [3]): 32 µg/mL; selectivity index (EC50/MIC) (P. aeruginosa K44-24): (5); MIC (A. baumanii K12-21): 32 µg/mL; selectivity index (EC50/MIC) (A. baumanii K12-21): (5); MIC (A. baumanii K44-35): 32 µg/mL; selectivity index (EC50/MIC) (A. baumanii K44-35): (5); MIC (A. baumanii K47-42): 32 µg/mL; selectivity index (EC50/MIC) (A. baumanii K47-42): (5); MIC (A. baumanii K55-13): 32 µg/mL; selectivity index (EC50/MIC) (A. baumanii K55-13): (5); MIC (A. baumanii K63-58): 16 µg/mL; selectivity index (EC50/MIC) (A. baumanii K63-58): (10)
NCCCCN1C(=O)N(CCCCN)C(=O)C(Cc2cc(C(F)(F)F)cc(C(F)(F)F)c2)(Cc2cc(C(F)(F)F)cc(C(F)(F)F)c2)C1=O [7(vi)],183 µg/mL,(11),16 µg/mL,16 µg/mL,(11),16 µg/mL,(11),(11),16 µg/mL,(11),8 µg/mL,(23),32 µg/mL,(6),32 µg/mL,(6),(6),32 µg/mL,(6),32 µg/mL,MIC (E. coli 50676002; [2]): 16 µg/mL; MIC (P. aeruginosa K34-73; [3]): 32 µg/mL; selectivity index (EC50/MIC) (P. aeruginosa K44-24): (6); MIC (A. baumanii K12-21): 16 µg/mL; selectivity index (EC50/MIC) (A. baumanii K12-21): (11); MIC (A. baumanii K44-35): 32 µg/mL; selectivity index (EC50/MIC) (A. baumanii K44-35): (6); MIC (A. baumanii K47-42): 32 µg/mL; selectivity index (EC50/MIC) (A. baumanii K47-42): (6); MIC (A. baumanii K55-13): 32 µg/mL; selectivity index (EC50/MIC) (A. baumanii K55-13): (6); MIC (A. baumanii K63-58): 32 µg/mL; selectivity index (EC50/MIC) (A. baumanii K63-58): (6)
"N=C(N)NCCCCN1C(=O)N(CCCCNC(=N)N)C(=O)C(Cc2cc(Br)cc(Br)c2)(Cc2cc(Br)cc(Br)c2)C1=O [8(ii), 1,1′-(4,4′-(5,5-bis(3,5-dibromobenzyl)-2,4,6-trioxodihydropyrimidine-1,3(2H,4H)-diyl)bis(butane-4,1-diyl))diguanidine]",56 µg/mL,(28),2 µg/mL,4 µg/mL,(14),4 µg/mL,(14),(14),4 µg/mL,(14),4 µg/mL,(14),8 µg/mL,(7),16 µg/mL,(4),(7),8 µg/mL,(7),8 µg/mL,"MIC (E. coli 50676002; Escherichia coli, E. coli 50676002, read-out: Antimicrobial activity (MIC)): 4 µg/mL; MIC (P. aeruginosa K34-73; K3473, P. aeruginosa K34-73, read-out: Antimicrobial activity (MIC)): 8 µg/mL; selectivity index (EC50/MIC) (P. aeruginosa K44-24): (7); MIC (A. baumanii K12-21): 4 µg/mL; selectivity index (EC50/MIC) (A. baumanii K12-21): (14); MIC (A. baumanii K44-35): 4 µg/mL; selectivity index (EC50/MIC) (A. baumanii K44-35): (14); MIC (A. baumanii K47-42): 4 µg/mL; selectivity index (EC50/MIC) (A. baumanii K47-42): (14); MIC (A. baumanii K55-13): 8 µg/mL; selectivity index (EC50/MIC) (A. baumanii K55-13): (7); MIC (A. baumanii K63-58): 4 µg/mL; selectivity index (EC50/MIC) (A. baumanii K63-58): (14)"
